Data published in the supplement of paper PMC10307832.

Legend:
Experiment in all cases: relative viability (nuclei count vs DMSO), 5 days (fraction); higher = more cells survive
[1] = compound: CCn1c(-c2nonc2N)nc2cnc(Oc3cccc(NC(=O)c4ccc(OCCN5CCOCC5)cc4)c3)cc21 + COc1cccc2cc(-c3nc([C@H]4CC[C@H](C(=O)O)CC4)n4ncnc(N)c34)[nH]c12 [OSI-027] (partner 0.5 µM)
In short: (§1)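 Medians of duplicate plates are given as relative viability. That measure is the nuclei count in treated wells divided by the count in vehicle wells. Counts were taken on 4× images of lung cancer cell lines in 1536-well plates, 5 days after pin-tool dosing the day after seeding with one drug alone or a fixed anchor-drug dose plus five library-drug doses (not always all listed) in √10 steps.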

[2] = compound: CCn1c(-c2nonc2N)nc2cnc(Oc3cccc(NC(=O)c4ccc(OCCN5CCOCC5)cc4)c3)cc21 + O=C(c1cc(Cc2n[nH]c(=O)c3ccccc23)ccc1F)N1CCN(C(=O)C2CC2)CC1 [Olaparib] (partner 8 µM)
In short: as §1

Mirin + Pictilisib = compound: N=C1NC(=O)/C(=C/c2ccc(O)cc2)S1 [Mirin] + CS(=O)(=O)N1CCN(Cc2cc3nc(-c4cccc5[nH]ncc45)nc(N4CCOCC4)c3s2)CC1 [Pictilisib] (partner 1 µM)
In short: as §1

Mirin + Olaparib = compound: N=C1NC(=O)/C(=C/c2ccc(O)cc2)S1 [Mirin] + O=C(c1cc(Cc2n[nH]c(=O)c3ccccc23)ccc1F)N1CCN(C(=O)C2CC2)CC1 [Olaparib] (partner 8 µM)
In short: as §1

Row | Cell Line | relative viability ([1]; first compound 0.04 µM) | relative viability ([1]; first compound 0.1265 µM) | relative viability ([1]; first compound 0.4 µM) | relative viability ([1]; first compound 1.265 µM) | relative viability ([1]; first compound 4 µM) | relative viability ([2]; first compound 0.04 µM) | relative viability ([2]; first compound 0.1265 µM) | relative viability ([2]; first compound 0.4 µM) | relative viability ([2]; first compound 1.265 µM) | relative viability ([2]; first compound 4 µM) | relative viability (Mirin + Pictilisib; first compound 0.25 µM) | relative viability (Mirin + Pictilisib; first compound 2.5 µM) | relative viability (Mirin + Pictilisib; first compound 25 µM) | relative viability (Mirin + Olaparib; first compound 0.25 µM) | relative viability (Mirin + Olaparib; first compound 0.7906 µM) | relative viability (Mirin + Olaparib; first compound 2.5 µM) | relative viability (Mirin + Olaparib; first compound 7.906 µM) | relative viability (Mirin + Olaparib; first compound 25 µM) | relative viability (Mirin + Pictilisib; first compound 0.7906 µM) | relative viability (Mirin + Pictilisib; first compound 7.906 µM)
1 | NCI-H647 | 0.591 | 0.393 | 0.323 | 0.34 | 0.278 | 0.718 | 0.512 | 0.428 | 0.348 | 0.302 | 0.413 | 0.417 | 0.295 | 0.567 | 0.617 | 0.617 | 0.479 | 0.164 | – | –
2 | SK-MES-1 | 0.651 | 0.601 | 0.403 | 0.386 | 0.359 | 0.772 | 0.721 | 0.656 | 0.568 | 0.483 | 0.319 | 0.379 | 0.46 | 0.721 | 0.877 | 0.682 | 0.583 | 0.455 | 0.376 | 0.502
3 | NCI-H1793 | 0.31 | 0.265 | 0.194 | 0.248 | 0.196 | 0.824 | 0.994 | 0.756 | 0.52 | 0.363 | 0.387 | 0.236 | 0.482 | 0.649 | – | 0.958 | 0.873 | 0.703 | 0.327 | 0.311
4 | NCI-H3122 | 1.4 | 0.961 | 0.729 | 0.326 | 0.737 | 0.697 | 0.618 | 0.643 | 0.607 | 0.592 | 0.541 | 0.576 | 0.7 | 0.691 | 0.667 | 0.566 | 0.623 | 0.664 | 0.515 | 0.673
5 | LCLC-103H | 0.522 | 0.448 | 0.231 | 0.312 | 0.323 | 0.908 | 0.816 | 0.712 | 0.717 | 0.715 | 0.63 | 0.536 | 0.739 | 0.703 | 0.892 | 0.758 | 0.847 | 0.89 | 0.532 | 0.714
6 | NCI-H520 | 0.354 | 0.36 | 0.279 | 0.332 | 0.224 | 0.432 | 0.347 | 0.264 | 0.237 | 0.237 | 0.275 | 0.274 | 0.181 | 0.311 | 0.336 | 0.307 | 0.349 | 0.187 | 0.284 | 0.202
7 | NCI-H1755 | 0.714 | 0.738 | 0.466 | 0.476 | 0.45 | 0.89 | 0.891 | 0.864 | 0.851 | 0.833 | 0.475 | 0.479 | 0.356 | 0.851 | 0.914 | 0.866 | 0.833 | 0.93 | 0.336 | 0.395
8 | NCI-H358 | 0.84 | 0.73 | 0.579 | 0.816 | 0.523 | 0.709 | 0.612 | 0.792 | 0.572 | 0.521 | 0.357 | 0.415 | 0.323 | 0.6 | 0.86 | 0.584 | 0.487 | 0.601 | 0.288 | 0.315
9 | NCI-H1734 | 0.647 | 0.591 | 0.303 | 0.335 | 0.319 | 0.654 | 0.583 | 0.557 | 0.442 | 0.328 | 0.427 | 0.445 | 0.394 | 0.538 | 0.582 | 0.662 | 0.556 | 0.461 | 0.376 | 0.444
10 | EPLC-272H | 0.363 | 0.339 | 0.246 | 0.234 | 0.247 | 1.09 | 0.928 | 0.827 | 0.449 | 0.365 | 0.35 | 0.284 | 0.258 | 0.867 | 0.682 | 0.812 | 0.661 | 0.228 | – | 0.311
11 | NCI-H2228 | 0.662 | 0.637 | 0.386 | 0.545 | 0.405 | 1.13 | 0.742 | 0.776 | 0.671 | 0.544 | 0.397 | 0.37 | 0.346 | 0.552 | 0.676 | 0.819 | 0.666 | 0.723 | 0.396 | 0.356
